Reference: ChEMBL document CHEMBL1125960, “Synthesis and biological activity of fluorinated intermediates of the methionine salvage pathway” (Bioorg Med Chem Lett, 1991)

Tests used:
Plasmodium falciparum [1] = experiment: Growth inhibition of pyrimethamine-resistant Plasmodium falciparum; type: functional, organism-based
Plasmodium falciparum [2] = experiment: Growth inhibition of chloroquine-resistant Plasmodium falciparum; type: functional, organism-based
Plasmodium falciparum [3] = experiment: Growth inhibition of Plasmodium falciparum FCB125; type: functional, organism-based
AIK-T4 [4] = experiment: (§1) The compound was evaluated for toxicity against HIV infected T4 lymphocytes; type: functional; details: Homo sapiens
AIK-T4 [5] = experiment: as §1; type: functional, cell-based; details: Homo sapiens
NCI-H522 = experiment: The compound was evaluated for its ability to inhibit growth of non small cell lung cancer ([…] cell line); type: functional; details: Homo sapiens

Structure (SMILES) | IC50 (Plasmodium falciparum [3]) | further results
OC1OC(CSC(F)(F)F)C(O)C1O (centres undefined) | > 100 µM | IC50 (Plasmodium falciparum [1]): 50 µM; IC50 (Plasmodium falciparum [2]): > 100 µM
NC1=NCN=C2C1N=CN2C1O[C@H](CSC(F)(F)F)[C@@H](O)[C@H]1O (some centres undefined) | 0.018 µM | GI50 (AIK-T4 [4]): 0.117 µM
NC1=NCN=C2C1N=CN2C1O[C@H](CSCCF)[C@@H](O)[C@H]1O (some centres undefined) | 0.043 µM | –
NC1=NCN=C2C1N=CN2C1O[C@H](CSC(F)F)[C@@H](O)[C@H]1O (some centres undefined) | 35 µM | IC50 (AIK-T4 [5]): 222 µM; GI50 (NCI-H522): 86 µM
NC1=NCN=C2C1N=CN2C1O[C@H](CSCC(F)(F)F)[C@@H](O)[C@H]1O (some centres undefined) | 0.085 µM | IC50 (AIK-T4 [5]): 0.245 µM; GI50 (NCI-H522): 45 µM
NC1=NCN=C2C1N=CN2C1O[C@H](CSCC(F)F)[C@@H](O)[C@H]1O (some centres undefined) | 0.025 µM | –
OC1O[C@H](CSC(F)F)[C@@H](O)[C@H]1O (some centres undefined) | > 100 µM | –
